Marks after values point to notes of the source that are not given here.
Legend:
[1] = tested on: mold; assay: Modified ASTM-G21 mold resistant test on fungicide-infused Kraft paper; format: cell-based; conditions: single active infused in Kraft paper; pass = mold resistant rating of 0 or 1; Trichoderma virens omitted from spore inocula
Protocol: In this example unbleached Kraft paper (brown wrapping paper (density 0.0091 g/cm2) is infused with DIMTS, carbendazim (BCM) and chlorothalonil (CTL) over a broad concentration range. In addition, paired combinations as well as all 3 actives combined are also infused into Kraft paper samples. Infusion of fungicide into paper is conducted by first dissolving the technical actives in a volatile solvent followed by addition of 1 mL of a working stock solution onto the surface of the paper to give the appropriate concentration of active(s) in mg/kg paper. The solvent completely saturates the paper. In order to prevent solvent from leaching through paper onto container, the paper is supported with a Viton O-ring. The solvent saturated paper samples are allowed to dry in a chemical fume hood precipitating the fungicides within the paper. Chemical analyses of fungicide actives in the paper samples confirms that this infusion technique produces >90% incorporation efficiency based on target concentrations. Standard mold resistant tests are performed on duplicate sub samples from each paper infusion sample. A modified ASTM-G21 is the standard mold resistant test used for performance evaluation. Synergy indices are calculated for all combinations of actives using a mold resistant rating of 0 or 1 as the passing criteria for performance. Synergy calculations are made according to the following standard equation:
SI=(Ca/CA)+(Cb/CB) 2 combination tests
SI=(Ca/CA)+(Cb/CB)+(Cc/CC) 3 combination tests
Ca is the lowest concentration of component A in combination with other active(s) required to pass test criteria;
CA is the lowest concentration of component A alone required to pass test criteria;
Cb is the lowest concentration of component B in combination with other active(s) required to pass test criteria;
CB is the lowest concentration of component B alone required to pass test criteria;
Cc is the lowest concentration of component C in combination with other active(s) required to pass test criteria; and
CC is the lowest concentration of component C alone required to pass test criteria. […]

[2] = cited from earlier work

Compound | PPM (active), lowest concentration of component alone required to pass test criteria [1] | Water solubility [2]
COC(=O)Nc1nc2ccccc2[nH]1 [BCM, methyl 2-benzimidazolecarbamate] | 1200 PPM | –
N#Cc1c(Cl)c(Cl)c(Cl)c(C#N)c1Cl [CTL, 1,3-dicyano-tetrachlorobenzene] | > 1000* PPM | –
Cc1ccc(S(=O)(=O)C(I)I)cc1 [DIMTS, diiodomethyltolylsulfone] | 4000 PPM | water insoluble

— patent publication US20100016394A1, “BIOCIDAL COMPOSITIONS” (priority 2008, published 2010)
